In ChEMBL document CHEMBL5576134, “Targeting Pancreatic Cancer with Novel Nicolaioidesin C Derivatives: Molecular Mechanism, In Vitro, and In Vivo Evaluations” (J Med Chem, 2024):
The source made the active and inactive calls.

Legend:
[1] = Modulation of PI3K/AKT/mTOR signalling pathway in human MIA PaCa-2 cells in DMEM medium assessed as decrease in mTOR phosphorylation at 5 uM measured for 6 hrs by Western blot analysis; type: cell-based; conditions: filed as modulator
PANC-1 = assay: Preferential cytotoxicity against human PANC-1 cells in nutrient-deprived medium measured after 24 hrs by WST-8 cell counting analysis; type: functional
MIA PaCa-2 [2] = assay: Preferential cytotoxicity against human MIA PaCa-2 cells in nutrient-deprived medium assessed as alteration in cell morphology by fluorescence intensity measured after 24 hrs by acridine orange and ethidium bromide dual fluorescent staining based microscopic analysis; type: functional; conditions: dose 0.5-1 µM
MIA PaCa-2 [3] = assay: Preferential cytotoxicity against human MIA PaCa-2 cells in nutrient-deprived medium assessed as alteration in cell morphology by measuring membrane leakage at 0.5 to 1 uM measured after 24 hrs by acridine orange and ethidium bromide dual fluorescent staining based microscopic analysis; type: functional; conditions: dose 0.5-1 µM
MIA PaCa-2 [4] = assay: Antimetastatic activity in human MIA PaCa-2 cells in DMEM media assessed as inhibition of cell migration at 10 uM incubated for 18 hrs relative to control (reference value: 64%); type: functional
MIA PaCa-2 [5] = assay: Antimetastatic activity in human MIA PaCa-2 cells in DMEM media assessed as inhibition of colony formation incubated for 24 hrs by crystal violet staining-based assay; type: functional, cell-based; conditions: dose 5-20 µM
MIA PaCa-2 [6] = assay: Antimetastatic activity in human MIA PaCa-2 cells in DMEM media assessed as reduction in colony area at 20 uM incubated for 24 hrs by crystal violet staining-based assay; type: functional; parameters: scale not given: the % may be the effect or the level left
MIA PaCa-2 [7] = assay: Induction of endoplasmic reticulum (ER) stress in human MIA PaCa-2 cells assessed as change in TRB3 level at 5 uM measured after 6 hrs by Western blot analysis; type: functional, cell-based
MIA PaCa-2 [8] = assay: Induction of endoplasmic reticulum (ER) stress in human MIA PaCa-2 cells in NDM medium assessed as change in TRB3 level at 5 uM measured after 6 hrs by Western blot analysis; type: functional, cell-based
MIA PaCa-2 [9] = assay: Induction of endoplasmic reticulum (ER) stress in human MIA PaCa-2 cells in DMEM medium assessed as change in TRB3 level at 5 uM measured after 6 hrs by Western blot analysis; type: functional, cell-based
[10] = Toxicity in BALB/c/Nu/Nu mouse xenografted with human MIA PaCa-2 cells assessed as change in abdominal organs at 60 mg/kg, ip administered 5 times a week for 4 weeks; type: organism-based; conditions: in vivo, 672 h
MIA PaCa-2 [11] = assay: Antitumor activity against human MIA PaCa-2 cells xenografted in BALB/c/Nu/Nu mouse assessed as reduction in tumor volume at 20 mg/kg, ip administered 5 times a week for 4 weeks and measured on day 16; type: functional, organism-based; conditions: time 16.0 day
MIA PaCa-2 [12] = assay: Antitumor activity against human MIA PaCa-2 cells xenografted in BALB/c/Nu/Nu mouse assessed as reduction in number of blood vessels in skin at 60 mg/kg, ip administered 5 times a week for 4 weeks in presence of gemcitabine; type: functional, organism-based
Mus musculus = assay: In-vivo modulation of PI3K/AKT/mTOR signalling pathway in human MIA PaCa-2 cells xenografted in BALB/c/Nu/Nu mouse assessed as downregulation of Akt phosphorylation at 60 mg/kg, ip administered 5 times a week for 4 weeks in presence of gemcitabine by Western blot analysis; type: functional, organism-based
MIA PaCa-2 [13] = assay: Synergistic antitumor activity against human MIA PaCa-2 cells xenografted in BALB/c/Nu/Nu mouse assessed as increase in pleomorphism at 60 mg/kg, ip administered 5 times a week for 4 weeks by H and E staining based analysis; type: functional, organism-based
MIA PaCa-2 [14] = assay: Induction of endoplasmic reticulum (ER) stress in human MIA PaCa-2 cells xenografted in BALB/c/Nu/Nu mouse assessed as downregulation of GRP78 expression in presence of gemcitabine by immunohistochemistry analysis; type: functional, cell-based

CC(C)=CCCC1=CC[C@H](C(=O)c2c(O)cccc2O)[C@@H](c2cccc(F)c2F)C1 (relative stereo)
Non-Toxic: Activity [10]
0.23 µM: PC50 (PANC-1)
98%: Activity (MIA PaCa-2 [6])
active: Activity [1] | Activity (MIA PaCa-2 [2]) Dose-Dependent Effect | Activity (MIA PaCa-2 [3]) | Activity (MIA PaCa-2 [5]) Dose-Dependent Effect | Activity (MIA PaCa-2 [7]) | Activity (MIA PaCa-2 [8]) | Activity (MIA PaCa-2 [9]) | Activity (MIA PaCa-2 [11]) | Activity (MIA PaCa-2 [12]) | Activity (Mus musculus) | Activity (MIA PaCa-2 [13]) | Activity (MIA PaCa-2 [14])
92%: inhibition at 10 µM (MIA PaCa-2 [4])
